According to ChEMBL document CHEMBL1201862, “PubChem BioAssay data set” (2004):
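How tested: cells in 96-well plates exposed to compound for 48 hours at five concentrations. At the GI50, growth is halved.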 Active and inactive are the calls of the source. Rule as the data show it: active = GI50 up to about 1.1 µM and inactive = higher.

Key:
Assay in all cases: NCI-60 cell line screen, 48 h
[1] = system: LXFL 529
[2] = system: XF498
[3] = system: M19-MEL
[4] = system: RXF 631
[5] = system: HOP-18
[6] = system: DMS-273
[7] = system: KM-20L2
[8] = system: DLD-1
[9] = system: SNB-78

Measured: GI50

CP(C)C.[Ag][I]
inactive: [1] 16 µM | [2] 15 µM | [3] > 100 µM | [4] 24.3 µM | [5] 62.8 µM | [6] > 100 µM | [7] > 100 µM | [8] > 100 µM | [9] 28.4 µM

O=C(O)C1(c2ccccc2)CCCNCC1 (centres undefined)
inactive: [1] > 100 µM | [3] > 100 µM | [4] > 100 µM | [5] > 100 µM | [6] > 100 µM | [7] > 100 µM | [8] > 100 µM | [9] > 100 µM

CCOC(=O)C1=C(O)C(=O)c2ccsc2C1=O
inactive: [3] 20.6 µM | [5] > 100 µM | [6] > 100 µM | [7] > 100 µM | [8] > 100 µM | [9] > 100 µM

COC(=O)/C(=N\NC(=S)NN)C(C(=O)C(=O)Nc1ccccc1C(N)=O)c1nc2ccccc2nc1O (centres undefined)
inactive: [1] > 100 µM | [2] > 100 µM | [3] > 100 µM | [4] > 100 µM | [5] > 100 µM | [6] > 100 µM | [7] > 100 µM | [9] > 100 µM

Cc1ccc(C(O)(c2ccc(C)cc2)c2ccccn2)cc1
inactive: [3] > 100 µM | [4] > 100 µM | [5] > 100 µM | [6] > 100 µM | [7] > 100 µM | [8] > 100 µM | [9] > 100 µM

CCCCNC1=C(C(=O)OCC)C(=O)CO1
inactive: [1] > 100 µM | [2] > 100 µM | [3] > 100 µM | [5] > 100 µM | [6] > 100 µM | [7] > 100 µM | [8] > 100 µM

O=C(Cc1nc2ccccc2s1)C(=O)Nc1ccc(Cl)cc1Cl
inactive: [1] > 100 µM | [2] > 100 µM | [3] > 100 µM | [4] > 100 µM | [6] > 100 µM | [7] > 100 µM | [8] > 100 µM | [9] > 100 µM

OCn1nc2c(C3OCCO3)cc3ccccc3n2c1=S
inactive: [1] > 100 µM | [2] > 100 µM | [3] > 100 µM | [4] > 100 µM | [5] > 100 µM | [6] > 100 µM | [7] > 100 µM | [8] > 100 µM | [9] > 100 µM

COc1ccc2[nH]cc(CCNC(C)=O)c2c1 [MELATONIN]
inactive: [1] > 100 µM | [2] > 100 µM | [3] > 100 µM | [5] > 100 µM | [6] > 100 µM | [7] > 100 µM | [8] > 100 µM | [9] > 100 µM

CCOc1cc2cnc3c4cc(OC)c(OC)cc4ccc3c2cc1OC
inactive: [1] 9.02 µM | [3] 39.8 µM | [5] 16.9 µM | [7] > 100 µM | [8] > 100 µM | [9] > 100 µM

COc1cccc(/C=C(/C(=O)O)c2cc(OC)c(OC)c(OC)c2)c1
inactive: [1] > 100 µM | [2] 37.8 µM | [3] > 100 µM | [4] > 100 µM | [5] > 100 µM | [6] > 100 µM | [7] > 100 µM | [8] > 100 µM | [9] > 100 µM

COc1ccc(N2C(=O)/C(=C/c3ccc(N(CCC#N)CCC#N)cc3C)N=C2/C=C\c2ccccc2)cc1
inactive: [1] 8.43 µM | [3] 26.5 µM | [4] > 100 µM | [5] > 100 µM | [7] 4.73 µM | [8] > 100 µM | [9] > 100 µM

CN(C)C(=S)/N=c1\ssc(=S)n1-c1ccccc1
inactive: [1] 12.4 µM | [2] 14.7 µM | [3] 16.3 µM | [5] > 100 µM | [6] 20.9 µM | [7] 16.6 µM | [8] 13.8 µM | [9] 19.4 µM

CC(=O)OC1C(CCl)OC(N=[N+]=[N-])C(OC(C)=O)C1OC(C)=O (centres undefined)
inactive: [1] > 10 µM | [2] > 100 µM | [3] > 100 µM | [4] > 100 µM | [6] > 100 µM | [7] > 100 µM | [8] > 100 µM

COc1cccc(-c2cc(O)c3ccccc3n2)c1
inactive: [1] 4.86 µM | [2] 4.07 µM | [3] 8.15 µM | [5] 15.2 µM | [6] 4.53 µM | [7] 9.77 µM | [8] 3.63 µM

COC(=O)C1=C(C(=O)OC)C2(C)OC1C(=O)C21CC1 (centres undefined)
inactive: [1] 19.5 µM | [2] 13.6 µM | [3] 71 µM | [4] 17.1 µM | [6] 17.7 µM | [7] 23.7 µM | [8] 19.1 µM

O=C1C2C3SC(c4cc5ccccc5cc43)C2C(=O)N1c1ccccc1 (centres undefined)
inactive: [1] 94.6 µM | [3] > 100 µM | [4] > 100 µM | [5] > 100 µM | [6] > 100 µM | [7] > 100 µM | [9] 84.5 µM

CCOC(=O)C(NO)C(Sc1ccccc1)c1ccc(OC)cc1 (centres undefined)
inactive: [1] > 100 µM | [2] 31 µM | [3] 69.2 µM | [5] > 100 µM | [6] > 100 µM | [7] > 100 µM | [8] 72.9 µM | [9] > 100 µM

O=C1CCN2C(=Nc3cccc4cccc2c34)N1
inactive: [1] > 100 µM | [2] > 100 µM | [3] > 100 µM | [6] > 100 µM | [7] > 100 µM | [9] > 100 µM

COc1cc(N)c2[nH]c3c(C)ccc(C)c3c2c1
inactive: [2] > 100 µM | [3] > 100 µM | [6] > 100 µM | [8] > 100 µM | [9] > 100 µM

CC(=O)OC1CC2C(C)(C)C(=O)C=C[C@]2(C)C2CCC3(C)C(c4ccoc4)C(=O)C4OC43[C@]12C (some centres undefined)
inactive: [1] 22.6 µM | [3] 16 µM | [5] 99.3 µM | [6] 31.6 µM | [7] 17.2 µM | [8] 16.5 µM | [9] 51.1 µM

Cc1[nH]c2ccccc2c1C1=NO/C(=N\O)C(c2c(C)[nH]c3ccccc23)C1 (centres undefined)
inactive: [1] 35.6 µM | [2] 53 µM | [3] 41.3 µM | [4] 31 µM | [5] 32.4 µM | [6] 35.9 µM | [7] 23.8 µM | [8] 42.3 µM | [9] 35.4 µM

CC(C)=CCC/C(C)=C/CC/C(C)=C/Cc1c(O)c2ccccc2oc1=O
inactive: [1] > 100 µM | [3] > 100 µM | [5] > 100 µM | [6] > 100 µM | [7] > 100 µM | [8] > 100 µM | [9] > 100 µM

COc1ccc(C(=O)C(C(=O)C(=O)Nc2ccc(Cl)c(Cl)c2)c2ccc(OC)cc2)cc1 (centres undefined)
inactive: [1] > 100 µM | [2] > 100 µM | [3] > 100 µM | [5] > 100 µM | [6] > 100 µM | [7] > 100 µM | [8] > 100 µM | [9] > 100 µM

Cc1cc(NS(=O)(=O)c2ccc(NC(=O)c3ccc(Cl)c4c(Nc5ccc(S(=O)(=O)N=C(N)N)cc5)c5ccccc5nc34)cc2)no1
inactive: [1] 31.8 µM | [2] 17.6 µM | [3] 46.8 µM | [7] > 100 µM | [8] > 100 µM | [9] 41.9 µM
